{"source": "BindingDB's records for patent US20250011311", "about": "(Astrazeneca, 2025)", "target": "T1, 17-beta-hydroxysteroid dehydrogenase 13 (Homo sapiens, UniProt Q7Z5P4)", "T1 sequence (Q7Z5P4 whole entry)": "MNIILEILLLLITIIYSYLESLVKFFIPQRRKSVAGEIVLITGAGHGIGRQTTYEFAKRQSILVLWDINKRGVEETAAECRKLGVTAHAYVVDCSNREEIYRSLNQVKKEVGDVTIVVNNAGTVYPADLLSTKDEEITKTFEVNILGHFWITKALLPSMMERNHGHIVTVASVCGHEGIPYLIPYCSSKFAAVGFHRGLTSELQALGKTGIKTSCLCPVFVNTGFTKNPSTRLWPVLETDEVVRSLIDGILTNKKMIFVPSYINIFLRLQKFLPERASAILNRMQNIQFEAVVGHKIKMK", "experiment": "In Vitro 17bHSD13 Enzyme Assay", "method": "Final assay conditions were 80 nM of 17bHSD13, 0.5 mM of NAD, 20 μM Estradiol and various concentrations of compound in buffer (5 mM EDTA (TEKNOVA E0306), 0.01% DDM (AFFYMETRIX D310) in 50 mM Tris-Cl, pH 7.4). After 2.5 h the reaction were stopped by addition of 20 μl of 0.6% Formic acid (MERCK 5.33002) and samples were analyzed using LC-MS/MS.SCIEX LC-MS/MS system: Sample was injected with CTC analytical injector, SHIMATZU LC pumps LC20 and analyzed on the SCIEX API 5000 LCMSMS system with the following settings. Samples were chromatographed on a WATERS, […], C8, 3.5 μm, 2.1×50 mm) column at constant flow rate of 0.5 mL/min. The mobile phases consist of A (water with 0.2% formic acid) and B (acetonitrile with 0.2% formic acid). The LC gradient profile is as follows: 50% B during 0 to 0.5 min, a linear increase to 100% B during 0.5 to 1 min, hold at 100% B during 1 to 1.6 min then back to 50% B from 1.6 to 2 min. The run time was 2 min with retention times of approximately 0.8 and 1.07 min for Estradiol and Estrone, respectively. Detection was performed on a API 5000 LC/MS/MS system with a triple quadrupole mass spectrometer, a TURBO V ion source, in multiple reaction monitoring (MRM) mode at positive polarity with APCI probe. The MRM pairs were m/z 273.1 to m/z 107.0 and m/z 271.3 to 107.0. for Estradiol and Estrone, respectively.", "data": [{"smiles": "CN(C(=O)c1noc(-c2cc(F)c(F)c(O)c2F)n1)c1cccc(C#N)c1", "note": "[US20250011311, Example 63]", "values": [{"measurement": "IC50", "result": 151, "unit": "nM"}]}]}
